According to patent US9827315B2, “Compositions of pharmaceutical actives containing diethylene glycol monoethyl ether or other alkyl derivatives” (THEMIS MEDICARE LIMITED, priority 2013, dated 2017):

Key:
[1] = water; cited from earlier work
[2] = system: Rabbits (New Zealand White); test: Acute Eye Irritation/Corrosion Test in Rabbits; assay type: in vivo
Procedure: Acute Eye Irritation/Corrosion Test for Diethylene Glycol Monoethyl Ether (Transcutol HP) in Rabbits • Test Item Transcutol HP • Diluted with: Water for injection • Test System Rabbits (New Zealand White) • Total No. of Animals: 6 animals for initial test • 12 animals for confirmatory test • No. of groups: 6 Study Design:
Initial test is carried out by using one animal per group.
Irrigation was carried out after 24 hrs from the treatment and the animals are again observed for symptoms of toxicity.
Confirmatory test is carried out by using two animals per group.
The dosing methodology and irrigation procedure was same as mentioned in the initial test and the observations were found as follows: […]

[3] = Intramuscular, Intravenous and Intraocular safety studies; conditions: in vivo

CCOCCOCCO [Diethylene glycol monoethyl ether, 2-(2-Ethoxyethoxy)ethanol]
Solubility in water (descriptive) [1]: soluble
eye irritation, confirmatory test ([2]; 1 hr, first three groups): no test item related effects
eye irritation, confirmatory test ([2]; 1 hr, group 4 and group 5): Mild irritation
eye irritation, confirmatory test ([2]; 1 hr, group 6): severe irritation
eye irritation, initial test ([2]; 24 hr, all animals except group 6): normal
eye irritation, confirmatory test ([2]; 24 hr, group 1 to group 3): normal
eye irritation, confirmatory test ([2]; 24 hr, group 4 and group 5): mild irritation including Chemosis, lacrimation and mild pupillary constriction
eye irritation, confirmatory test ([2]; 24 hr, group 6): severe irritation
eye irritation, initial test ([2]; 24 hr, group 6): mild irritation including Chemosis and Lacrimation
ocular toxicity, summary ([2]; concentration of 100%, intra occularly): irritant but not corrosive
eye irritation, initial test ([2]; first hour, first three groups): no test item related effects
eye irritation, initial test ([2]; first hour, group 4 and 5): Mild irritation
eye irritation, initial test ([2]; first hour, group 6): moderate irritation
corrosion effect, initial test ([2]; rabbit, in vivo): no corrosion effect
ocular toxicity, summary ([2]; up to 80% of concentration): not showing any occular toxicity
safety in Intramuscular, Intravenous and Intraocular studies [3]: safe and non toxic
